Test results taken from PubChem BioAssay AID1845200 (Molecular Pharmacology Branch, DTP, NCI, 2023).

System: ASPS-1 complex tumor spheroids, viability
Test: Anticancer human tumor ASPS-1 cell line growth inhibition;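 further: spheroids exposed to agents for 7 days after 3 days of growth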;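 on viability, T/C: 100% = DMSO vehicle treated spheroids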
Conditions: for IC50: curve of first compound; for viability, T/C: stronger effect = lower value
In short: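 Complex tumor spheroids combined malignant cells with endothelial cells and mesenchymal stem cells. DNA-damaging drugs and DNA repair inhibitors were tested alone and in combination, at half-log dilutions down from clinical Cmax (top 10 microM if Cmax unknown), 0.25% DMSO final.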

[1] = second compound 1 µM, first compound 0.0316 µM
[2] = second compound 1 µM, first compound 0.1 µM
[3] = second compound 1 µM, first compound 0.316 µM
[4] = second compound 1 µM, first compound 1 µM
[5] = second compound 1 µM, first compound 3.16 µM
[6] = second compound 1 µM, first compound 10 µM
[7] = second compound 3.16 µM, first compound 0.0316 µM
[8] = second compound 3.16 µM, first compound 0.1 µM
[9] = second compound 3.16 µM, first compound 0.316 µM
[10] = second compound 3.16 µM, first compound 1 µM
[11] = second compound 3.16 µM, first compound 3.16 µM
[12] = second compound 3.16 µM, first compound 10 µM
[13] = second compound 10 µM, first compound 0.0316 µM
[14] = second compound 10 µM, first compound 0.1 µM
[15] = second compound 10 µM, first compound 0.316 µM
[16] = second compound 10 µM, first compound 1 µM
[17] = second compound 10 µM, first compound 3.16 µM
[18] = second compound 10 µM, first compound 10 µM
[19] = second compound 31.6 µM, first compound 0.0316 µM
[20] = second compound 31.6 µM, first compound 0.1 µM
[21] = second compound 31.6 µM, first compound 0.316 µM
[22] = second compound 31.6 µM, first compound 1 µM
[23] = second compound 31.6 µM, first compound 3.16 µM
[24] = second compound 31.6 µM, first compound 10 µM
[25] = second compound 100 µM, first compound 0.0316 µM
[26] = second compound 100 µM, first compound 0.1 µM
[27] = second compound 100 µM, first compound 0.316 µM
[28] = second compound 100 µM, first compound 1 µM
[29] = second compound 100 µM, first compound 3.16 µM
[30] = second compound 100 µM, first compound 10 µM

CC1COCCN1c1cc(-c2ccnn2C)c2ccnc(-c3ccn[nH]3)c2n1 (stereo not given) + Cn1nnc2c(C(N)=O)ncn2c1=O
IC50 (second compound 1 µM): 0.224 µM | IC50 (second compound 3.16 µM): < 0.0316 µM | IC50 (second compound 10 µM): < 0.0316 µM | IC50 (second compound 31.6 µM): < 0.0316 µM | IC50 (second compound 100 µM): < 0.0316 µM | viability, T/C [1]: 72.3% | viability, T/C [2]: 59.2% | viability, T/C [3]: 46.6% | viability, T/C [4]: 41.1% | viability, T/C [5]: 46.1% | viability, T/C [6]: 43.9% | viability, T/C [7]: 38.5% | viability, T/C [8]: 44% | viability, T/C [9]: 42.2% | viability, T/C [10]: 41.6% | viability, T/C [11]: 43% | viability, T/C [12]: 50.2% | viability, T/C [13]: 42.4% | viability, T/C [14]: 39.4% | viability, T/C [15]: 35.5% | viability, T/C [16]: 38.1% | viability, T/C [17]: 42.5% | viability, T/C [18]: 52.4% | viability, T/C [19]: 37.6% | viability, T/C [20]: 31.1% | viability, T/C [21]: 31.7% | viability, T/C [22]: 32.6% | viability, T/C [23]: 42.2% | viability, T/C [24]: 48.3% | viability, T/C [25]: 24.9% | viability, T/C [26]: 22.5% | viability, T/C [27]: 20.4% | viability, T/C [28]: 23.6% | viability, T/C [29]: 29.6% | viability, T/C [30]: 42%

COc1cc(C)[nH]c(=O)c1CN1CCc2c(Cl)cc(C(OC)C3COC3)c(Cl)c2C1=O (stereo not given) + Cn1nnc2c(C(N)=O)ncn2c1=O
IC50 (second compound 1 µM): > 10 µM | IC50 (second compound 3.16 µM): > 10 µM | IC50 (second compound 10 µM): > 10 µM | IC50 (second compound 31.6 µM): > 10 µM | IC50 (second compound 100 µM): > 10 µM | viability, T/C [1]: 107% | viability, T/C [2]: 104% | viability, T/C [3]: 99.2% | viability, T/C [4]: 98.6% | viability, T/C [5]: 94.7% | viability, T/C [6]: 96.7% | viability, T/C [7]: 103% | viability, T/C [8]: 101% | viability, T/C [9]: 103% | viability, T/C [10]: 104% | viability, T/C [11]: 103% | viability, T/C [12]: 90.8% | viability, T/C [13]: 75.3% | viability, T/C [14]: 83.9% | viability, T/C [15]: 94.9% | viability, T/C [16]: 86.8% | viability, T/C [17]: 91% | viability, T/C [18]: 81.2% | viability, T/C [19]: 80.4% | viability, T/C [20]: 82.5% | viability, T/C [21]: 82.5% | viability, T/C [22]: 84.1% | viability, T/C [23]: 82.7% | viability, T/C [24]: 75.2% | viability, T/C [25]: 81.8% | viability, T/C [26]: 78.6% | viability, T/C [27]: 72.9% | viability, T/C [28]: 72.7% | viability, T/C [29]: 69% | viability, T/C [30]: 70%
